The source made the active and inactive calls. No rule for the calls is given here.
Test system: rodent lifetime carcinogenesis bioassay, tumor incidence TD50
Experiment: chronic cancer bioassays in animals – CPDB, compiled studies (AID 1745844)

SMILES: CC1=CC(=C(c2ccc(N)cc2)c2ccc(N)cc2)C=CC1=N
- carcinogen call (hamster, strain Syrian Golden, females, by gavage, site: any site (literature study), lesion: several types, types named in the paper, dosed 68 weeks, study length 68 weeks): negative (inactive)
- carcinogen call (hamster, strain Syrian Golden, males, by gavage, site: any site (literature study), lesion: several types, types named in the paper, dosed 84 weeks, study length 84 weeks): negative (inactive)
- TD50 (hamster, strain Syrian Golden, males, by gavage, site: lung, lesion: bronchiolar adenoma, dosed 84 weeks, study length 84 weeks): 2020 mg/kg/day (inactive)
- carcinogen call (rat, strain Sprague-Dawley, females, by gavage, site: any site (literature study), lesion: several types, types named in the paper, dosed 107 weeks, study length 107 weeks): negative (inactive)
- carcinogen call (rat, strain Sprague-Dawley, males, by gavage, site: any site (literature study), lesion: several types, types named in the paper, dosed 111 weeks, study length 111 weeks): negative (inactive)

SMILES: CN1CCC[C@H]1c1cccnc1
- carcinogen call (mouse, strain Swiss albino, females, in drinking water, site: liver, lesion: several types, types named in the paper, dosed 121 weeks, study length 123 weeks): negative (inactive)
- TD50 (mouse, strain Swiss albino, females, in drinking water, site: lung, lesion: one or several types, types not named, dosed 121 weeks, study length 123 weeks): 11100 mg/kg/day (inactive)
- carcinogen call (mouse, strain Swiss albino, males, in drinking water, site: liver, lesion: several types, types named in the paper, dosed 114 weeks, study length 120 weeks): negative (inactive)
- carcinogen call (mouse, strain Swiss albino, males, in drinking water, site: lung, lesion: one or several types, types not named, dosed 114 weeks, study length 120 weeks): negative (inactive)
- carcinogen call (rat, strain Sprague-Dawley, females, i.p., site: any site (literature study), lesion: malignant tumor, dosed 104 weeks, study length 104 weeks): negative (inactive)
- TD50 (rat, strain Sprague-Dawley, males, i.p., site: any site (literature study), lesion: malignant tumor, dosed 104 weeks, study length 104 weeks): 6.38 mg/kg/day (inactive)

SMILES: Cc1ccc2ncccc2c1
- TD50 (rat, strain Fischer 344, females, in feed, site: liver, lesion: hyperplastic nodule, dosed 104 weeks, study length 104 weeks): 230 mg/kg/day (inactive)
- TD50 (rat, strain Fischer 344, males, in feed, site: liver, lesion: hyperplastic nodule, dosed 104 weeks, study length 104 weeks): 123 mg/kg/day (inactive)

SMILES: O=NN1CC(=O)NC1=O
- TD50 (rat, strain MRC-Wistar, females, in drinking water, site: any site (literature study), lesion: several types, types named in the paper, dosed 52 weeks, study length 110 weeks): 19.6 mg/kg/day
- TD50 (rat, strain MRC-Wistar, males, in drinking water, site: any site (literature study), lesion: several types, types named in the paper, dosed 52 weeks, study length 110 weeks): 7.31 mg/kg/day
- TD50 (rat, strain MRC-Wistar, males, in drinking water, site: forestomach, lesion: squamous-cell papilloma, dosed 52 weeks, study length 110 weeks): 27.8 mg/kg/day
- TD50 (rat, strain MRC-Wistar, males, in drinking water, site: pharynx, lesion: squamous-cell carcinoma, dosed 52 weeks, study length 110 weeks): 43.8 mg/kg/day

SMILES: C=CC(=O)NCO
- TD50 (mouse, strain B6C3F1, females, by gavage, site: Harderian gland + liver + lung + ovary, lesion: adenoma + adenoma, bilateral + hepatocellular adenoma + alveolar/bronchiolar adenoma + alveolar/bronchiolar carcinoma + granulosa-, dosed 103 weeks, study length 105 weeks): 27.8 mg/kg/day
- TD50 (mouse, strain B6C3F1, females, by gavage, site: Harderian gland, lesion: adenoma + adenoma, bilateral + carcinoma, dosed 103 weeks, study length 105 weeks): 44.6 mg/kg/day
- TD50 (mouse, strain B6C3F1, females, by gavage, site: Harderian gland, lesion: adenoma + adenoma, bilateral, dosed 103 weeks, study length 105 weeks): 55.5 mg/kg/day
- TD50 (mouse, strain B6C3F1, females, by gavage, site: any site (literature study), lesion: several types, types named in the paper, dosed 103 weeks, study length 105 weeks): 30.9 mg/kg/day
- TD50 (mouse, strain B6C3F1, females, by gavage, site: liver, lesion: hepatocellular adenoma + hepatocellular carcinoma + neoplastic nodule, dosed 103 weeks, study length 105 weeks): 74.8 mg/kg/day
- TD50 (mouse, strain B6C3F1, females, by gavage, site: liver, lesion: hepatocellular adenoma + hepatocellular carcinoma, dosed 103 weeks, study length 105 weeks): 74.8 mg/kg/day
- TD50 (mouse, strain B6C3F1, females, by gavage, site: liver, lesion: hepatocellular adenoma, dosed 103 weeks, study length 105 weeks): 66.9 mg/kg/day
- TD50 (mouse, strain B6C3F1, females, by gavage, site: lung, lesion: alveolar/bronchiolar adenoma + alveolar/bronchiolar carcinoma, dosed 103 weeks, study length 105 weeks): 111 mg/kg/day
- TD50 (mouse, strain B6C3F1, females, by gavage, site: ovary, lesion: granulosa-cell tumor, benign, dosed 103 weeks, study length 105 weeks): 119 mg/kg/day
- TD50 (mouse, strain B6C3F1, males, by gavage, site: Harderian gland + liver + lung, lesion: adenoma + hepatocellular adenoma + hepatocellular carcinoma + alveolar/bronchiolar adenoma + alveolar/bronchiolar carcinoma, dosed 103 weeks, study length 105 weeks): 13.3 mg/kg/day
- TD50 (mouse, strain B6C3F1, males, by gavage, site: Harderian gland, lesion: adenoma + carcinoma, dosed 103 weeks, study length 105 weeks): 17.4 mg/kg/day
- TD50 (mouse, strain B6C3F1, males, by gavage, site: Harderian gland, lesion: adenoma, dosed 103 weeks, study length 105 weeks): 17.5 mg/kg/day
- TD50 (mouse, strain B6C3F1, males, by gavage, site: any site (literature study), lesion: several types, types named in the paper, dosed 103 weeks, study length 105 weeks): 22.3 mg/kg/day
- TD50 (mouse, strain B6C3F1, males, by gavage, site: liver, lesion: hepatocellular adenoma + hepatocellular carcinoma + neoplastic nodule, dosed 103 weeks, study length 105 weeks): 29.4 mg/kg/day
- TD50 (mouse, strain B6C3F1, males, by gavage, site: liver, lesion: hepatocellular adenoma + hepatocellular carcinoma, dosed 103 weeks, study length 105 weeks): 29.4 mg/kg/day
- TD50 (mouse, strain B6C3F1, males, by gavage, site: liver, lesion: hepatocellular adenoma, dosed 103 weeks, study length 105 weeks): 50.2 mg/kg/day
- TD50 (mouse, strain B6C3F1, males, by gavage, site: liver, lesion: hepatocellular carcinoma, dosed 103 weeks, study length 105 weeks): 63.4 mg/kg/day
- TD50 (mouse, strain B6C3F1, males, by gavage, site: lung, lesion: alveolar/bronchiolar adenoma + alveolar/bronchiolar carcinoma, dosed 103 weeks, study length 105 weeks): 38.5 mg/kg/day
- TD50 (mouse, strain B6C3F1, males, by gavage, site: lung, lesion: alveolar/bronchiolar adenoma, dosed 103 weeks, study length 105 weeks): 66 mg/kg/day
- TD50 (mouse, strain B6C3F1, males, by gavage, site: lung, lesion: alveolar/bronchiolar carcinoma, dosed 103 weeks, study length 105 weeks): 75.1 mg/kg/day
- carcinogen call (rat, strain Fischer 344, females, by gavage, site: any site (literature study), lesion: several types, types named in the paper, dosed 103 weeks, study length 105 weeks): negative (inactive)
- TD50 (rat, strain Fischer 344, males, by gavage, site: any site (literature study), lesion: several types, types named in the paper, dosed 103 weeks, study length 105 weeks): 3120 mg/kg/day
- TD50 (rat, strain Fischer 344, males, by gavage, site: skin, lesion: keratoacanthoma, dosed 103 weeks, study length 105 weeks): 13 mg/kg/day (inactive)

SMILES: CCOc1ccc2c(c1)C(C)=CC(C)(C)N2
- carcinogen call (rat, strain F344/DuCrj, males, in feed, site: esophagus, lesion: one or several types, types not named, dosed 52 weeks, study length 52 weeks): negative (inactive)
- carcinogen call (rat, strain F344/DuCrj, males, in feed, site: forestomach, lesion: one or several types, types not named, dosed 52 weeks, study length 52 weeks): negative (inactive)
- carcinogen call (rat, strain F344/DuCrj, males, in feed, site: liver, lesion: one or several types, types not named, dosed 52 weeks, study length 52 weeks): negative (inactive)
- carcinogen call (rat, strain Fischer 344, females, in feed, site: kidney, lesion: one or several types, types not named, dosed 58 weeks, study length 58 weeks): negative (inactive)
- carcinogen call (rat, strain Fischer 344, females, in feed, site: kidney, lesion: one or several types, types not named, dosed 78 weeks, study length 78 weeks): negative (inactive)
- carcinogen call (rat, strain Fischer 344, males, in feed, site: kidney, lesion: one or several types, types not named, dosed 58 weeks, study length 58 weeks): negative (inactive)
- carcinogen call (rat, strain Fischer 344, males, in feed, site: kidney, lesion: one or several types, types not named, dosed 78 weeks, study length 78 weeks): negative (inactive)

SMILES: [N]=O
- carcinogen call (mouse, strain ICR/Jcl, females, inhaled, site: lung, lesion: adenoma, dosed 126 weeks, study length 126 weeks): negative (inactive)

SMILES: CCCCCCCCCCC(C)c1ccc(S(=O)(=O)O)cc1 (stereo not drawn)
- carcinogen call (rat, strain Slc-Wistar, females, in feed, site: preputial gland, lesion: several types, types named in the paper, dosed 142 weeks, study length 148 weeks): negative (inactive)
- carcinogen call (rat, strain Slc-Wistar, males, in feed, site: preputial gland, lesion: several types, types named in the paper, dosed 127 weeks, study length 139 weeks): negative (inactive)

SMILES: COC(=O)C1=CCCN(N=O)C1
- TD50 (rat, strain Fischer 344, males, in drinking water, site: pancreas, exocrine, lesion: acinar-cell adenoma, dosed 128 weeks, study length 128 weeks): 7.95 mg/kg/day

SMILES: CC(C)Oc1ccc(Nc2ccccc2)cc1
- TD50 (mouse, strain B6AKF1, females, oral dosing, site: any site (literature study), lesion: several types, types named in the paper, dosed 76 weeks, study length 76 weeks): 1200 mg/kg/day (inactive)
- TD50 (mouse, strain B6AKF1, females, oral dosing, site: liver, lesion: angioma, dosed 76 weeks, study length 76 weeks): 2650 mg/kg/day (inactive)
- carcinogen call (mouse, strain B6AKF1, females, oral dosing, site: lung, lesion: adenoma, dosed 76 weeks, study length 76 weeks): negative (inactive)
- TD50 (mouse, strain B6AKF1, males, oral dosing, site: any site (literature study), lesion: several types, types named in the paper, dosed 76 weeks, study length 76 weeks): 985 mg/kg/day (inactive)
- TD50 (mouse, strain B6AKF1, males, oral dosing, site: liver, lesion: hepatoma, dosed 76 weeks, study length 76 weeks): 1130 mg/kg/day (inactive)
- TD50 (mouse, strain B6AKF1, males, oral dosing, site: lung, lesion: adenoma, dosed 76 weeks, study length 76 weeks): 2180 mg/kg/day (inactive)
- TD50 (mouse, strain B6C3F1, females, oral dosing, site: any site (literature study), lesion: several types, types named in the paper, dosed 76 weeks, study length 76 weeks): 1290 mg/kg/day (inactive)
- TD50 (mouse, strain B6C3F1, females, oral dosing, site: liver, lesion: hepatoma, dosed 76 weeks, study length 76 weeks): 2650 mg/kg/day (inactive)
- carcinogen call (mouse, strain B6C3F1, females, oral dosing, site: lung, lesion: several types, types named in the paper, dosed 76 weeks, study length 76 weeks): negative (inactive)
- TD50 (mouse, strain B6C3F1, males, oral dosing, site: any site (literature study), lesion: several types, types named in the paper, dosed 76 weeks, study length 76 weeks): 300 mg/kg/day (inactive)
- TD50 (mouse, strain B6C3F1, males, oral dosing, site: liver, lesion: hepatoma, dosed 76 weeks, study length 76 weeks): 679 mg/kg/day (inactive)
- TD50 (mouse, strain B6C3F1, males, oral dosing, site: lung, lesion: adenoma, dosed 76 weeks, study length 76 weeks): 2180 mg/kg/day (inactive)

— PubChem BioAssay AID1745844 (Carcinogenic Potency Database (CPDB), 2022)
